# Results from patent publication US10143668B2, “Hydroxy-substituted amino and ammonium derivatives and their medical use” (GRI BIO, INC., priority 2011, dated 2018).
# pIC50: −log10 of the molar value. Read-outs that look alike come from different tables or passages of the source.
# Assays:
# [1] = test system: collagen type II-induced arthritis (CIA) in mice
# RBL-2H3 cells = assay: Inhibition of mast cell degranulation (β-hexosaminidase release); assay type: cell-based; details: Rattus norvegicus, RBL-2H3 cells sensitized with anti-DNP IgE, triggered with DNP-HSA
# Source text: Mast cells are key effector cells involved in allergic and inflammatory diseases, and the Rat Basophilic Leukemia clone 2H3 (RBL-2H3) cell line is a commonly used model of allergen dependent immune modulator release (degranulation) in mast cells. On their surface, they express the high affinity receptor for IgE (FcεRI) Upon binding of antigen-specific IgE to the receptor, cells become sensitized to the IgE specific antigen (allergen). When IgE-sensitized cells then encounter multivalent antigen, the antigen clusters IgE-FcεRI complexes and initiates a signal transduction cascade that leads to degranulation, that is, the release of inflammatory mediators, such as cytokines, eicosanoids, histamine and enzymes. The assay can be used as a screening method to identify immune-modulating compounds, in particular compounds useful in the medical management of allergic and inflammatory diseases and asthma. β-hexosaminidase was previously shown to be released with the same kinetics as histamine (Schwartz et al., J Immunology; 123:1445-1450 (1979)), thus offering a simple means to monitor degranulation. The RBL-2H3 cell line has been successfully used to identify compounds with anti-allergic activity (Choo et al. Planta Med., 69:518-522 (2003)).
# Cell Culture: RBL-2H3 cells obtained from the German Collection of Microorganisms and Cell Cultures (ACC312) (Braunschweig, Germany) were maintained in 70% Minimum Essential Medium with Earle's Salts, 20% RPMI 1640 Medium, 10% FBS and 2 mM L-glutamine in 95% air/5% CO2 at 37° C. and routinely checked for mycoplasma contamination. Cells were passaged every 3-4 days; after washing cells once with 35 ml PBS cells were incubated 8 min with 5 ml 0.05% Trypsin-EDTA solution at 37° C. Cells were removed from the incubator, 15 ml culture medium was added and cells were resuspended by repeated pipetting.
# Cell seeding: cells were harvested with Trypsin-EDTA as described and 50-100 μl cell suspension seeded into Costar CellBind 24 well cluster plates (no. 3337). Plates were kept for 30 min at RT under the sterile hood before being transferred to the incubator. Cells were used within one or two days after seeding.
# For sensitization, cells for immediate use were sensitized 6-12 h after plating; cells to be used the following day were sensitized 26-38 h after plating. Culture plates were removed from the incubator and checked for cell growth and contamination. The medium was discarded and cells were sensitized with anti-DNP IgE (0.4 μg/ml) in 0.4 ml culture medium overnight. Following overnight sensitization, cells were washed with 0.8 ml pre-warmed TyB and 0.38 ml test compound or vehicle control (supplemented or not with 1% FBS) were added to duplicate wells. Samples were adjusted to contain 1% vehicle for test compounds dissolved in organic solvents. Cells were incubated for 1 h at 37° C. At the end of the incubation period, cells were routinely stimulated with 20 μl DNP-HSA (2 μg/ml; final concentration 0.1 μg/ml) diluted in TyB and cells were incubated for 15 min at 37° C. Alternatively, cells were stimulated with 20 μl 5 μM ionomycin (final concentration 0.25 μM) or 20 μl 5 μM thapsigargin (final concentration 0.25 μM), both in the absence or presence of 20 nM PMA (final concentration). […]
# MUG substrate solution, 100 μl, were added to supernatant and lysate samples and plates were incubated 30 min at 37° C. […] Fluorescene was measured at 365 nm excitation and 440 nm emmission wavelengths. […]
# [2] = therapeutic regimen, 100 mg/kg orally twice daily for 20 days, vs vehicle
structure (smiles),measurement,setting,value
"CCCCCCCCCCCCCC[N+](C)(C)CC(=O)N(C)C[C@H](O)[C@@H](O)[C@H](O)[C@H](O)CO [Compound 1a, N-(2-(Dimethyl(tetradecyl)ammonio)acetyl)-N-methyl-D-glucamine chloride]",cumulative arthritis score,[1]; prophylactic regimen,significantly reduced
same,duration of the disease,[1]; prophylactic regimen,significantly reduced
same,arthritic score,"[1]; prophylactic, 25 mg/kg orally twice daily, from day 34 to day 47, vs vehicle",significantly reduced
same,paw thickness,"[1]; prophylactic, 25 mg/kg, from day 34 after immunization, vs vehicle",significant reduction
same,arthritic score,"[1]; prophylactic, 100 mg/kg orally twice daily, from day 40 to day 47, vs vehicle",significantly reduced
same,arthritis score,[1]; [2],"reduced the arthritis score and cumulative arthritis score compared to vehicle treated mice (FIG. 5C), but without reaching statistical significance"
same,cumulative arthritis score,[1]; [2],"reduced the arthritis score and cumulative arthritis score compared to vehicle treated mice (FIG. 5C), but without reaching statistical significance"
same,duration of disease,"[1]; therapeutic regimen, 100 mg/kg, vs vehicle",trend to a reduction
same,pIC50,RBL-2H3 cells,5.42
